This is an account of results in ChEMBL document CHEMBL5634136 (Eur J Med Chem, 2023).

The source made the active and inactive calls. No cut-off for these calls is given here.

The target in series [1] is T1, Epidermal growth factor receptor (Homo sapiens, UniProt P00533, C797S/EX19DEL/T790M). The experiment in a line: Inhibition of recombinant EGFR Del19/T790M/C797S mutant (unknown origin) in presence of ATP by TR-FRET assay. (Time-resolved FRET reads energy transfer from a long-lived donor to a nearby acceptor.)
T1 sequence (P00533 whole entry, looked up, stated change not applied): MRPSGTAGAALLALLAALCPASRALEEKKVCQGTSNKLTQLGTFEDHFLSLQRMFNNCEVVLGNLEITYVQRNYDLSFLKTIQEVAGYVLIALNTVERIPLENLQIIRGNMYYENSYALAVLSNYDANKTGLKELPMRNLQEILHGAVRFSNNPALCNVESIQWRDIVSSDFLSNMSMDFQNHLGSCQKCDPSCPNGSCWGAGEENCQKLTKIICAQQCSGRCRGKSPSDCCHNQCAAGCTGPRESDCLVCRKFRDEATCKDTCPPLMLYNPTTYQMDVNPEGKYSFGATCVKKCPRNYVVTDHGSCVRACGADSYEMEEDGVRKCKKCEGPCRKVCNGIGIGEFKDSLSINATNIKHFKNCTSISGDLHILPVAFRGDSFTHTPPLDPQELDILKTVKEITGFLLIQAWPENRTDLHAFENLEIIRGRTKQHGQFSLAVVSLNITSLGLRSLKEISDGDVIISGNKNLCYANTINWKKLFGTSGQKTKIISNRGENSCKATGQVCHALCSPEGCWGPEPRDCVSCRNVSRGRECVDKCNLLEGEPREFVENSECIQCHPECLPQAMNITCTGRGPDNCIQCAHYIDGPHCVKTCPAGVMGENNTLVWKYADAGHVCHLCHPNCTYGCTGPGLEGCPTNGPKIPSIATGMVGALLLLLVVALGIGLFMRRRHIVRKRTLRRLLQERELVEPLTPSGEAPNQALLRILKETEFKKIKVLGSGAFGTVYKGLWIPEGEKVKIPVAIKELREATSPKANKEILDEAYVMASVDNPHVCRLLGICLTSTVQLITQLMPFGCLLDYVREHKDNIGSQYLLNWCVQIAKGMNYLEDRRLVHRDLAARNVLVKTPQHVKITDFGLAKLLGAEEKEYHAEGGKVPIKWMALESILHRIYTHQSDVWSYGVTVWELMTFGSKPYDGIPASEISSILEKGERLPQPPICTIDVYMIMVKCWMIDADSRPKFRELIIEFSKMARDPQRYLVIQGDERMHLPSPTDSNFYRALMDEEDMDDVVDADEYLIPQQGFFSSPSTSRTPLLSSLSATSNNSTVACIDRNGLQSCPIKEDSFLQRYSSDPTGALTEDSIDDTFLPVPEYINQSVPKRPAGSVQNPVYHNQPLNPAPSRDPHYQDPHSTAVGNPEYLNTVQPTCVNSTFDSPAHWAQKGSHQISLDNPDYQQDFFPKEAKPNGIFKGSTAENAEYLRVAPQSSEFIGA
For series [2], the target named is Epidermal growth factor receptor (Mus musculus) (UniProt Q01279). The series is described as follows: Inhibition of EGFR in mouse KC-0116 cells assessed as downregulation of EGFR phosphorylation level at 1 uM incubated for 24 hrs by Western blotting analysis. Format: cell-based. Background: A western blot detects proteins with antibodies after separation by electrophoresis.
Epidermal growth factor receptor (Mus musculus), sequence (Q01279 whole entry): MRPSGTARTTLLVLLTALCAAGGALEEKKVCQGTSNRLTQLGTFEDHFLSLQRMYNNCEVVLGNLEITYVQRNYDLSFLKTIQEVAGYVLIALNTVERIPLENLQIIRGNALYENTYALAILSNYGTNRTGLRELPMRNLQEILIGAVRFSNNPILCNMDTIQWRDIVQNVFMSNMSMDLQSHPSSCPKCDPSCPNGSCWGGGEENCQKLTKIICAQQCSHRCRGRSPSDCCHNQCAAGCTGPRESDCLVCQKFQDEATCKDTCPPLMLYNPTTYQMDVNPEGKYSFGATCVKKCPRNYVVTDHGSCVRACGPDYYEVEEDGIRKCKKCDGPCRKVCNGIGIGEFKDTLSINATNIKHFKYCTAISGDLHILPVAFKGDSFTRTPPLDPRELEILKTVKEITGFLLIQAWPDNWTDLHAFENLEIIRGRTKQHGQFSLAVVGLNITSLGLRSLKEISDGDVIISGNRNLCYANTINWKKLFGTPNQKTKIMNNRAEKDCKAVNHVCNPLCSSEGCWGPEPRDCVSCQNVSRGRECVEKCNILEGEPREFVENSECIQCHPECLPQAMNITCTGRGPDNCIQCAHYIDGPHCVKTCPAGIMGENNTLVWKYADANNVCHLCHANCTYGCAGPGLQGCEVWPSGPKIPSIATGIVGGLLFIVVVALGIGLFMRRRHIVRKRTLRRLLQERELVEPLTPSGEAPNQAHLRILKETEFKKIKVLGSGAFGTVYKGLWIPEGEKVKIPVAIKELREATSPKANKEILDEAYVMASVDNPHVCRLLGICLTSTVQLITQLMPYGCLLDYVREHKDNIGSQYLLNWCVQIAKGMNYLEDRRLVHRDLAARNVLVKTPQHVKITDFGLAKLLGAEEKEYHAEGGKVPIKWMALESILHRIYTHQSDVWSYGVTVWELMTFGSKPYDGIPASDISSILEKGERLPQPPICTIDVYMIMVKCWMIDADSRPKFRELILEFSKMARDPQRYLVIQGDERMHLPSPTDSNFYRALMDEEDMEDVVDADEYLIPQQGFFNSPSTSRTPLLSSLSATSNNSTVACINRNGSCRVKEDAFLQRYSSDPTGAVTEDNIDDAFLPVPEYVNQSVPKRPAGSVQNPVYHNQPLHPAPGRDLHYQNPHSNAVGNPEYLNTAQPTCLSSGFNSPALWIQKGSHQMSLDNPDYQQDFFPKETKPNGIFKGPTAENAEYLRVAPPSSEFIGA

In series [3] the target is T1, Epidermal growth factor receptor. The series is described as follows: Inhibition of EGFR Del19/T790M/C797S mutant (unknown origin).
The nature of series [4]: Induction of apoptosis in mouse KC-0116 cells assessed as early apoptotic cells at 1 uM incubated for 48 hrs by annexin V-FITC/ PI staining based flow cytometry (reference value: 8.09 %). Type of series: functional.
In series [5] the test system is KC-0116. The experiment in a line: Induction of cell cycle arrest in mouse KC-0116 cells assessed as accumulation of cells at G1 phase at 1 uM incubated for 24 hrs by RNase/PI staining based flow cytometry. Type of series: functional.
A short description of series [6]: Induction of apoptosis in mouse KC-0116 cells assessed as necrotic cells at 1 uM incubated for 48 hrs by annexin V-FITC/ PI staining based flow cytometry (reference value: 0.04 %). Type of series: functional.
In the next series the test system is HepG2. The series is described as follows: Antiproliferative activity against human HepG2 cells harboring VEGFR assessed as inhibition of cell growth incubated for 72 hrs by MTT assay. As to conditions: HepG2, 72 h. Format: functional, cell-based. In general terms: Tetrazolium assays rely on reduction of a dye to a coloured formazan, in cell work by metabolically active cells.

A short description of series [7]: Antiproliferative activity against mouse KC-0116 cells assessed as inhibition of cell growth incubated for 72 hrs by MTT assay. Format: functional, cell-based. As to conditions: KC-0116, 72 h.
The target of series [8] is Epidermal growth factor receptor (Mus musculus) (UniProt Q01279). The experiment in a line: Inhibition of EGFR in mouse KC-0116 cells assessed as downregulation of AKT protein expression level at 1 uM incubated for 24 hrs by Western blotting analysis. Type of series: cell-based.
In another series the test system is HCC827. The experiment in a line: Antiproliferative activity against human HCC827 cells harboring EGFR Del19 mutant assessed as inhibition of cell growth incubated for 72 hrs by MTT assay. Type of series: functional, cell-based. As to conditions: HCC827, 72 h.
Series [9] addresses Epidermal growth factor receptor (Mus musculus) (UniProt Q01279). The series is described as follows: Inhibition of EGFR in mouse KC-0116 cells assessed as downregulation of EGFR phosphorylation level incubated for 24 hrs by Western blotting analysis. Type of series: cell-based.
A short description of series [10]: Induction of apoptosis in mouse KC-0116 cells assessed as viable cells at 1 uM incubated for 48 hrs by annexin V-FITC/ PI staining based flow cytometry (reference value: 93.27 %). Type of series: functional. Conditions: Mus musculus, KC-0116, read-out: Activity.
Series [11] addresses Epidermal growth factor receptor (Homo sapiens, UniProt P00533, C797S/L858R/T790M). The series is described as follows: Inhibition of EGFR L858R/T790M/C797S mutant (unknown origin).
Series [12] addresses Epidermal growth factor receptor (Mus musculus) (UniProt Q01279). The experiment in a line: Inhibition of EGFR in mouse KC-0122 cells assessed as downregulation of AKT protein expression level incubated for 24 hrs by Western blotting analysis. Type of series: cell-based.
Series [13] shares this target. The series is described as follows: Inhibition of EGFR in mouse KC-0122 cells assessed as downregulation of EGFR phosphorylation level at 1 uM incubated for 24 hrs by Western blotting analysis. Type of series: cell-based.
Series [14] is described as follows: Induction of apoptosis in mouse KC-0116 cells assessed as late apoptotic cells at 0.1 uM incubated for 48 hrs by annexin V-FITC/ PI staining based flow cytometry (reference value: 1 %). Type of series: functional.
Series [15] in a line: Induction of apoptosis in mouse KC-0116 cells assessed as early apoptotic cells at 0.1 uM incubated for 48 hrs by annexin V-FITC/ PI staining based flow cytometry (reference value: 8.09 %). Type of series: functional.
The nature of series [16]: Toxicity in BALB/c mouse xenografted with mouse KC-0116 cells assessed as change in body weight at 10 mg/kg,po administrated once daily for 10 days. Format: organism-based. As to conditions: in vivo, 240 h, time 10 day.
The test system of another series is A-431. The series is described as follows: Antiproliferative activity against human A-431 cells harboring wild type EGFR assessed as inhibition of cell growth incubated for 72 hrs by MTT assay. Format: functional, cell-based. Conditions: A-431, 72 h.
Series [17] concerns the target Epidermal growth factor receptor (Mus musculus) (UniProt Q01279). The experiment in a line: Inhibition of EGFR in mouse KC-0122 cells assessed as downregulation of ERK protein expression level at 1 uM incubated for 24 hrs by Western blotting analysis. Format: cell-based.
Series [18] is described as follows: Induction of apoptosis in mouse KC-0116 cells assessed as necrotic cells at 10 uM incubated for 48 hrs by annexin V-FITC/ PI staining based flow cytometry (reference value: 0.04 %). Format: functional.
Series [19] is described as follows: Antitumor activity against mouse KC-0116 cells xenografted in BALB/c mouse assessed as tumor growth inhibition at 10 mg/kg,po administrated once daily for 10 days relative to control. Type of series: functional. Conditions: KC-0116, 240 h, time 10 day, read-out: TGI.
The target in series [20] is Epidermal growth factor receptor (Mus musculus) (UniProt Q01279). The experiment in a line: Inhibition of EGFR in mouse KC-0116 cells assessed as downregulation of ERK protein expression level at 1 uM incubated for 24 hrs by Western blotting analysis. Type of series: cell-based.
For series [21] the target is unchanged. The experiment in a line: Inhibition of EGFR in mouse KC-0122 cells assessed as downregulation of EGFR phosphorylation level incubated for 24 hrs by Western blotting analysis. Format: cell-based.
Series [22] shares this target. The series is described as follows: Inhibition of EGFR in mouse KC-0122 cells assessed as downregulation of AKT protein expression level at 1 uM incubated for 24 hrs by Western blotting analysis. Format: cell-based.
Series [23] in a line: Induction of apoptosis in mouse KC-0116 cells assessed as viable cells at 0.1 uM incubated for 48 hrs by annexin V-FITC/ PI staining based flow cytometry (reference value: 93.27 %). Type of series: functional. As to conditions: read-out: Activity.
Series [24] can be described thus: Induction of apoptosis in mouse KC-0116 cells assessed as necrotic cells at 0.1 uM incubated for 48 hrs by annexin V-FITC/ PI staining based flow cytometry (reference value: 0.04 %). Format: functional.
In series [25] the target is Epidermal growth factor receptor (Mus musculus) (UniProt Q01279). The experiment in a line: Inhibition of EGFR in mouse KC-0116 cells assessed as downregulation of AKT protein expression level incubated for 24 hrs by Western blotting analysis. Type of series: cell-based.
The nature of series [26]: Induction of apoptosis in mouse KC-0116 cells assessed as late apoptotic cells at 1 uM incubated for 48 hrs by annexin V-FITC/ PI staining based flow cytometry (reference value: 1 %). Type of series: functional.
For another series, the system named is NCI-H1975. The series is described as follows: Antiproliferative activity against human NCI-H1975 cells harboring EGFR L858R/T790M mutant assessed as inhibition of cell growth incubated for 72 hrs by MTT assay. Format: functional, cell-based. As to conditions: NCI-H1975, 72 h.
Series [27] is described as follows: Induction of apoptosis in mouse KC-0116 cells assessed as early apoptotic cells at 10 uM incubated for 48 hrs by annexin V-FITC/ PI staining based flow cytometry (reference value: 8.09 %). Format: functional.
Series [28] in a line: Toxicity in BALB/c mouse xenografted with mouse KC-0116 cells assessed as change in body weight at 40 mg/kg,po administrated once daily for 10 days. Type of series: organism-based. Conditions: in vivo, 240 h, time 10 day.
Series [29] in a line: Antiproliferative activity against mouse KC-0122 cells assessed as inhibition of cell growth incubated for 72 hrs by MTT assay. As to conditions: KC-0122, 72 h. Format: functional, cell-based.
The test system of series [30] is KC-0116. The series is described as follows: Antitumor activity against mouse KC-0116 cells xenografted in BALB/c mouse assessed as reduction in tumor weight at 40 mg/kg,po administrated once daily for 10 days. Format: functional, organism-based. Conditions: time 10.0 day.
Series [31] in a line: Antitumor activity against mouse KC-0116 cells xenografted in BALB/c mouse assessed as tumor growth inhibition at 40 mg/kg,po administrated once daily for 10 days relative to control. Format: functional. Conditions: KC-0116, 240 h, time 10 day, read-out: TGI.
Series [32] has as its target Epidermal growth factor receptor (Mus musculus) (UniProt Q01279). The series is described as follows: Inhibition of EGFR in mouse KC-0122 cells assessed as downregulation of ERK protein expression level incubated for 24 hrs by Western blotting analysis. Format: cell-based.
Series [33] is described as follows: Induction of apoptosis in mouse KC-0116 cells assessed as late apoptotic cells at 10 uM incubated for 48 hrs by annexin V-FITC/ PI staining based flow cytometry (reference value: 1 %). Type of series: functional.
Series [34] deals with Epidermal growth factor receptor (Mus musculus) (UniProt Q01279). The series is described as follows: Inhibition of EGFR in mouse KC-0116 cells assessed as downregulation of ERK protein expression level incubated for 24 hrs by Western blotting analysis. Format: cell-based.
The nature of series [35]: Induction of apoptosis in mouse KC-0116 cells assessed as viable cells at 10 uM incubated for 48 hrs by annexin V-FITC/ PI staining based flow cytometry (reference value: 93.27 %). Conditions: read-out: Activity. Type of series: functional.

Epidermal growth factor receptor (Homo sapiens, UniProt P00533, C797S/L858R/T790M), sequence (P00533 25-1210 T790M/C797S/L858R limits assumed): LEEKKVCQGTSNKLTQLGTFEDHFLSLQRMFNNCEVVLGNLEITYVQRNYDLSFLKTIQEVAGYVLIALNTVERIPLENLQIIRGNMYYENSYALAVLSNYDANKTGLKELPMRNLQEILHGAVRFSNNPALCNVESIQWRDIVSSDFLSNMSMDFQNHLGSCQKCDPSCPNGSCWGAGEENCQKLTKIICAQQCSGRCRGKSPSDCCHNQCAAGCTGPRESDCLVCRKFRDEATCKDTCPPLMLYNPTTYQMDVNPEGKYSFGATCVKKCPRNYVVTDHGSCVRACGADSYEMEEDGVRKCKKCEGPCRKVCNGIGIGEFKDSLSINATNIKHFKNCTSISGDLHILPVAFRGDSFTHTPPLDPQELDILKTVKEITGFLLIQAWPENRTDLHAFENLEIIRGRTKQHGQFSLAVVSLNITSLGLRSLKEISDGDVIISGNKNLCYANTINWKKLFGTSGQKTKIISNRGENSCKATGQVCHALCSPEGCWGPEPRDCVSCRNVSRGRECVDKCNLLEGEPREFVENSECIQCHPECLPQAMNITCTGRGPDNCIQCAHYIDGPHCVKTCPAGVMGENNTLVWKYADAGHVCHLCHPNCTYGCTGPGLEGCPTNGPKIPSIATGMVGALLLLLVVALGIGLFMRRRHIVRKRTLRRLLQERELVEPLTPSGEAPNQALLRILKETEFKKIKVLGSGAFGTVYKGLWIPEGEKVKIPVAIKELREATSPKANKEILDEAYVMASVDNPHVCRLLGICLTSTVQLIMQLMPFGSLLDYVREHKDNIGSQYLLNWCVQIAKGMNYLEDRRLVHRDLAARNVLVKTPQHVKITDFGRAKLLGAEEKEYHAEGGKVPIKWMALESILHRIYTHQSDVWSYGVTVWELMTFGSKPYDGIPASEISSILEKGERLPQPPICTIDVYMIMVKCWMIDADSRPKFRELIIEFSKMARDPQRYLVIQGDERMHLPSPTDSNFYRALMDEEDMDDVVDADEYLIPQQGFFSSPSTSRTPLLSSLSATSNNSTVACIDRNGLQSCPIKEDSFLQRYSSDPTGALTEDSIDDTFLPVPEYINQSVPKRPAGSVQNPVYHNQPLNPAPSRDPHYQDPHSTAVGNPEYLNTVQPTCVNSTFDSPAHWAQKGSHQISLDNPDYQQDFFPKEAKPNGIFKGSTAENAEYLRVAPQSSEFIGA

Take `CC(C)n1c2cc(Nc3ccnc(-c4cnn(S(=O)(=O)C5CC5)c4)n3)ncc2c2c(OCC(F)(F)F)cc(N3CCN(C)CC3)cc21`: in series [1], the 50% inhibitory concentration (IC50) came to 0.28 nM.

As for `CN(C)C1CCN(c2ccc(Nc3nccc(-c4cn(C)c5ccccc45)n3)cc2NS(C)(=O)=O)CC1`, the inhibition result in series [2], in series [8], in [13], in series [17], in [20] and in series [22] was “Active” in each case. Moreover, the half-maximal inhibitory concentration (IC50) in series [3] amounted to 18 nM; in the series with HepG2 it was 1780 nM; in series [7], 160 nM; in the series with HCC827 it was 160 nM; in series [11], 113 nM; in the series on A-431, 1990 nM. The half-inhibitory concentration (IC50) with NCI-H1975 was found to be 1000 nM; in [29] it was 170 nM. In addition, the Activity in series [4] was 25.29%; in series [6], 0.17%; in [14], 1.42%; in series [15] it was 5.5%; in series [16], “Non-Toxic”; in [18], 0.09%. For the same molecule, the Activity was 0.08% in [24]; 2.66% in series [26]; 91.42% in series [27]; “Non-Toxic” in series [28]; 0.77% in series [33]. For the same molecule, the outcome in the series with KC-0116 [5] and in the series with KC-0116 [30] was Active. Moreover, the inhibition entry in series [9], in series [12], in series [21], in series [25], in series [32] and in series [34] was “Dose-Dependent Effect” each time. Also, in series [10], the viability at 1 µM is 72.9%. For the same molecule, the inhibition in vivo at 10 mg/kg in series [19] amounted to 28.4%. Further, in series [23], the viability at 0.1 µM came out at 92.9%. For the same molecule, the inhibition in vivo at 40 mg/kg in series [31] came out at 77.6%. In series [35], the viability at 10 µM came to 1.53%.

A word on the IC50: it is the concentration that inhibits the measured activity by half.
